Data: ChEMBL document CHEMBL1681639, “Discovery of substituted 3-(phenylamino)benzoic acids as potent and selective inhibitors of type 5 17β-hydroxysteroid dehydrogenase (AKR1C3)” (Bioorg Med Chem Lett, 2011)
pIC50: −log10 of the molar value.

Target: T1, Aldo-keto reductase family 1 member C3 (Homo sapiens, UniProt P42330)
T1 sequence (P42330 whole entry): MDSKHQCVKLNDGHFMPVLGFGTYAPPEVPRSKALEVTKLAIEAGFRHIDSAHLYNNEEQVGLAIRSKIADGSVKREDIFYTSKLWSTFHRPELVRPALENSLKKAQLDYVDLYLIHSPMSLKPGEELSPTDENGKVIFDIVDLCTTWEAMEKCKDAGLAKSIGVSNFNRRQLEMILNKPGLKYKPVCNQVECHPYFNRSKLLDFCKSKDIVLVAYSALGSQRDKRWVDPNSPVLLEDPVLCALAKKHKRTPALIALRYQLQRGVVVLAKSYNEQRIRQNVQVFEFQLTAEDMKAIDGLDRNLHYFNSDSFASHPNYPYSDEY
Test: Inhibition of AKR1C3 by fluorimetric method

Row | Structure (SMILES) | pIC50
1 | O=C(O)c1ccccc1Nc1cccc(C(F)(F)F)c1 [FLUFENAMIC ACID] | 7.29
2 | COc1ccc(Nc2cccc(C(=O)O)c2)cc1 | 6.31
3 | O=C(O)c1cccc(Nc2ccc(Cl)cc2)c1 | 6.89
4 | Cc1ccc(Nc2cccc(C(=O)O)c2)cc1 | 6.15
5 | O=C(O)c1cccc(Nc2ccc(C(F)(F)F)cc2)c1 | 7.21
